Source: US5908842A, “Substituted 2-acylamino-pyridines as inhibitors of nitric oxide synthase” (Merck & Co., Inc., priority 1997, dated 1999)

Biological target: Human Inducible Nitric Oxide Synthase (Homo sapiens, UniProt P35228)
Experiment: Inhibition of human inducible nitric oxide synthase (formation of L-[3H]citrulline from L-[3H]arginine)
Format: biochemical
Details: 1 μM L-Arg, pH 7.5, room temperature, 30 minutes; for inhibition at 50 µM: 50 μM inhibitor
Text: J Lowenstein and S. H. Snyder in Methods in Enzymology, Vol. 233, L. Packer, ed., Academic Press, NY, 1994, Ch.26, pp. 264-269.
Various assays for NOS activity have been reported in the literature and are reviewed in the following: M. E. Murphy and E. Noack in Methods in Enzymology, Vol. 233, L. Packer, ed., Academic Press, NY, 1994, Ch.26, pp. 240-250 and J. M. Hevel and M. A. Marletta in Methods in Enzymology, Vol. 233, L. Packer, ed., Academic Press, NY, 1994, Ch.26, pp. 250-258. Details for the assay protocols to measure NOS activity are as follows:
NOS activity is measured as the formation of L-[2,3,4,5-^3 H]Citrullinefrom L-[2,3,4,5-^3 H]Arginine. The incubation buffer (100 μL) contained; 100 mM TES, pH 7.5, 5 μM FAD, 5 μM FMN, 10 μM BH4, 0.5 mM NADPH, 0.5 mM DTT, 0.5 mg/mL BSA, 2 mM CaCl2, 10 μg/mL calmodulin (bovine), 1 μM L-Arg, 0.2 μCi L-[2,3,4,5-^3 H]Arg, and the inhibitor in aqueous DMSO (max. 5 %). The reaction is initiated by addition of enzyme. Incubations are performed at room temperature for 30 minutes and stopped by the addition of an equal volume of quenching buffer consisting of 200 mM sodium citrate, pH 2.2, 0.02% sodium azide. Reaction products are separated by passing through a cation exchange resin and quantitated as cpm by scintillation counting. Percent inhibition is calculated relative to enzyme incubated without inhibitor according to: % inhibition =[…](cpm L-[2,3,4,5-^3 H]Cit with inhibitor/cpm L-[2,3,4,5-^3 H]Cit without inhibitor).

Row | IC50 [µM] | inhibition at 50 µM [%] | Structure (SMILES)
1 | < 10 | 85 | Cc1ccnc(NC(=S)NCCC[C@H](N)C(=O)O)c1 [Example 15, N-(2-(4-Methylpyridyl))-N'-(((S)-4-amino-4-carboxy)-n-butyl)-thiourea]
2 | < 50 | 51 | C=CCNC(=S)Nc1cc(C)cc(C)n1 [Example 5, N-(2-(4,6-dimethylpyridyl))-N'-allyl-thiourea]
3 | < 50 |  | CCN(CC)S(=O)(=O)NC(=O)Nc1ccc(C)cn1 [Example 19]
4 | < 1 | 92 | CCN(CC)S(=O)(=O)NC(=O)Nc1cc(C)ccn1 [Example 18]
5 | < 50 | 57 | Cc1ccnc(NC(=S)NC2CC(C)CC(C)(C)C2)c1 (stereo not shown) [Example 13, N-(2-(4-Methylpyridyl))-N'-(3,3,,5-trimethylcyclohexyl)-thiourea]
6 | < 10 | 96 | Cc1ccnc(NC(=O)NC(=O)c2ccccc2)c1 [Example 14, N-(2-(4-Methylpyridyl))-N'-benzoyl-urea]
7 |  | 54 | Cc1ccnc(NC(=S)Nc2cccc3ccccc23)c1 [Example 10, N-(2-(4-Methylpyridyl))-N'-(1-naphthyl)-thiourea]
8 | < 10 | 55 | CCN(CC)S(=O)(=O)NC(=O)Nc1ccccn1 [Example 16, N-(2-Pyridyl)-N'-(diethylaminosulfonyl)-urea]
9 | < 10 |  | CCN(CC)S(=O)(=O)NC(=O)Nc1ncccc1C [Example 17]
10 | < 50 | 76 | Cc1ccnc(NC(=S)NCc2ccccc2)c1 [Example 12]
11 | < 50 | 55 | S=C(Nc1ccc(Br)cc1)Nc1ccccn1 [Example 9, N-(2-Pyridyl)-N'-(4-bromophenyl)-thiourea]
12 | < 1 |  | COC(=O)C(=O)Nc1cc(C)ccn1 [Example 21, Oxalamide, N-(4-methyl-2-pyridyl), methyl ester]
13 | < 10 |  | CCNC(=S)Nc1cc(C)ccn1 [Example 7, N-(2-(4-Methylpyridyl))-N'-ethyl-thiourea]
14 | < 1 | 100 | Cc1ccnc(NC(=S)NC(C)C)c1 [Example 6, N-(2-(4-Methylpyridyl))-N'-isopropyl-thiourea]
15 | < 50 | 54 | Cc1ccc(NC(=O)Nc2cc(C)ccn2)cc1 [Example 1, N-(2-(4-Methylpyridyl))-N'-(4-methylphenyl)-urea]
16 | > 50 | 57 | COC(=O)CC(=O)Nc1cc(C)ccn1 [Example 22, Malonamide, N-(4-methyl-2-pyridyl), methyl ester]
17 | < 10 | 86 | C=CCNC(=S)Nc1ccc(C(F)(F)F)cn1 [Example 4, N-(2-(5-trifluoromethylpyridyl))-N'-allyl-thiourea]
18 |  | 50 | Cc1ccnc(NC(=S)Nc2ccccc2)c1 [Example 8, N-(2-(4-Methylpyridyl))-N'-phenyl-thiourea]
19 | < 1 |  | CCN(CC)S(=O)(=O)N(C)C(=O)Nc1cc(C)ccn1 [Example 20]
20 | < 50 | 75 | Cc1cc(C)nc(NC(N)=S)c1 [Example 3, N-(2-(4,6-dimethylpyridyl))-thiourea]
21 | < 50 | 63 | Cc1ccnc(NC(N)=S)c1 [Example 2, N-(2-(4-Methylpyridyl))-thiourea]
22 | < 50 | 70 | Cc1ccnc(NC(=S)Nc2cccc(F)c2)c1 [Example 11, N-(2-(4-Methylpyridyl))-N'-(3-fluorophenyl)-thiourea]
